According to ChEMBL document CHEMBL5465560, “Selectivity Literature for EUbOPEN Chemogenomic Library” (2024):

How the values were obtained:
[1] = molecular target: T1, Rhodopsin kinase GRK7 (Homo sapiens) (UniProt Q8WTQ7); assay: Selectivity interaction (KinomeScan (DiscoverX)) EUB0000092b GRK7; conditions: at 10 µM
T1 sequence (whole entry): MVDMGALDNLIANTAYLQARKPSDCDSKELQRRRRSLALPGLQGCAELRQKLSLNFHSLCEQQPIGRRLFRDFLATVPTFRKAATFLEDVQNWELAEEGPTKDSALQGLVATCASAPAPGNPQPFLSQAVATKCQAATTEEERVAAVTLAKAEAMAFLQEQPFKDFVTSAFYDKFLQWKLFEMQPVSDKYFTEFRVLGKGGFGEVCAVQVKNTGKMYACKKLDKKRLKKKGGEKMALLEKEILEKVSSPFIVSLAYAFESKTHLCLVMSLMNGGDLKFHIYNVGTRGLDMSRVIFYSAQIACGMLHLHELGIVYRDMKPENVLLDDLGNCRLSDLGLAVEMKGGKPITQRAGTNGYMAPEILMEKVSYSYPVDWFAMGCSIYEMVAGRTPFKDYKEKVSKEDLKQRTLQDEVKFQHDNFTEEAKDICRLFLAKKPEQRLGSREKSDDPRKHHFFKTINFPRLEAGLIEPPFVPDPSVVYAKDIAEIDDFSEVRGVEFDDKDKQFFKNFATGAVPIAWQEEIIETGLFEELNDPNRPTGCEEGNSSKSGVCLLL

[2] = molecular target: T2, Interleukin-1 receptor-associated kinase 4 (Homo sapiens) (UniProt Q9NWZ3); assay: Selectivity interaction (ProQinase) EUB0000171b IRAK4
T2 sequence (whole entry): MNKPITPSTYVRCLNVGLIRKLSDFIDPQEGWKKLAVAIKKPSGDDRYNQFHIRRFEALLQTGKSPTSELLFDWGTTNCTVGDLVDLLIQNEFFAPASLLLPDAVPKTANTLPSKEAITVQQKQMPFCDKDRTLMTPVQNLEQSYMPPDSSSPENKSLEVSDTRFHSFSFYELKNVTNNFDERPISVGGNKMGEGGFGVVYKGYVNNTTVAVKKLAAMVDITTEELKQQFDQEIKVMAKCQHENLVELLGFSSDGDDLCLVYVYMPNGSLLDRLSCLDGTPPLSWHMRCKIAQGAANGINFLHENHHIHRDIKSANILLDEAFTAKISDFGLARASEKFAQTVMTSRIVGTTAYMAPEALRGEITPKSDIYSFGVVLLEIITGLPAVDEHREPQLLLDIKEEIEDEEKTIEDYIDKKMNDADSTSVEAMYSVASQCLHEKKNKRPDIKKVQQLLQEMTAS

[3] = molecular target: Protein polybromo-1 (Homo sapiens) (UniProt Q86U86); assay: Selectivity interaction (Human bromodomain panel (DSF assay)) EUB0000233b PBRM1
Chain of Protein polybromo-1 (Homo sapiens) (Q86U86 whole entry, the tested form may be a part): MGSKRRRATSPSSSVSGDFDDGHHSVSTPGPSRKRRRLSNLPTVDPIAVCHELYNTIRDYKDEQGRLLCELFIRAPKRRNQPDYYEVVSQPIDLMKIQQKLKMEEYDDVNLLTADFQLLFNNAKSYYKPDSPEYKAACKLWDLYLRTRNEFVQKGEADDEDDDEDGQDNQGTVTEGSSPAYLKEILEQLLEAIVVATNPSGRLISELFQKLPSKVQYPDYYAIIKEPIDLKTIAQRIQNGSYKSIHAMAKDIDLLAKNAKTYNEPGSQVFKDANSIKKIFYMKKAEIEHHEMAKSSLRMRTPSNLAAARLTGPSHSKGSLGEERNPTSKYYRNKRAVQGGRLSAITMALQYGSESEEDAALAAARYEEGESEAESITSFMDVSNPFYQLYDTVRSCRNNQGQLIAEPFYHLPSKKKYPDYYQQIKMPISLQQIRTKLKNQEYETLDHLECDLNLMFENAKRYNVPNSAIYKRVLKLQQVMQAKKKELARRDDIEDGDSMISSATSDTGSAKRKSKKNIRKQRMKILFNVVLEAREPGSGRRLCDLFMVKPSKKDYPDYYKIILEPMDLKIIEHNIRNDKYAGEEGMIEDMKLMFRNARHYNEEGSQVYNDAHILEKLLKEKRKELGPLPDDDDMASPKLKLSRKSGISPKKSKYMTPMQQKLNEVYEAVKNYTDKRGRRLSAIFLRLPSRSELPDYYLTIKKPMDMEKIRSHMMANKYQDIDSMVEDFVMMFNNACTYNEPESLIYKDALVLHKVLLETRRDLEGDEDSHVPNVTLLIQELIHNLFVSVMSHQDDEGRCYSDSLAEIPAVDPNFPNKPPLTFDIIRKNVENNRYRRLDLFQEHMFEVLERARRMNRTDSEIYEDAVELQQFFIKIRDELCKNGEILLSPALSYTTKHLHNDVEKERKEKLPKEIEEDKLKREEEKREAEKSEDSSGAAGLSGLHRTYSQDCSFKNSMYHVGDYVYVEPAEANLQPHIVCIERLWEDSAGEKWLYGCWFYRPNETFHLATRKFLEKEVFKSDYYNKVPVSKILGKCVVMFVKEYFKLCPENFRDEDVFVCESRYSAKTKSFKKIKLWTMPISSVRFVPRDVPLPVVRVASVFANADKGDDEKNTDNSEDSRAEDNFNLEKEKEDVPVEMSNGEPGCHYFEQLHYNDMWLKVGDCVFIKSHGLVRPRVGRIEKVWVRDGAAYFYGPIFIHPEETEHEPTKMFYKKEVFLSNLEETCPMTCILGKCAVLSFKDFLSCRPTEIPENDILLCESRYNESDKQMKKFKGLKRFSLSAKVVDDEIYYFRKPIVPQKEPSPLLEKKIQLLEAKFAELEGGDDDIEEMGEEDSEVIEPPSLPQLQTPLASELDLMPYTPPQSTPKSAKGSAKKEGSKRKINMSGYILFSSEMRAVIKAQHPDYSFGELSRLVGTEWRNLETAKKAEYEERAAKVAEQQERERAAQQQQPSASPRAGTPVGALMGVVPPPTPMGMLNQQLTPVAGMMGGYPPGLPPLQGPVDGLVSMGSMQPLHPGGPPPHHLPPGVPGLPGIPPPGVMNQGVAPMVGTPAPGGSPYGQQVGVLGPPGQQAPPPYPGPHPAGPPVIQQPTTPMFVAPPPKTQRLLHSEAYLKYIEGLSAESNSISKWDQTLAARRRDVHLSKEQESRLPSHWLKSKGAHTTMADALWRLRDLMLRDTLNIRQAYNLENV

[4] = molecular target: ATPase family AAA domain-containing protein 2B (Homo sapiens) (UniProt Q9ULI0); assay: Selectivity interaction (Human bromodomain panel (DSF assay)) EUB0000233b ATAD2B
[5] = molecular target: Dual specificity protein kinase CLK3 (Homo sapiens, UniProt P49761); assay: Selectivity interaction (Kinase panel (KiNativ target engagement assay in Jurkat cells)) EUB0001635a CLK3; format: cell-based; conditions: Selectivity number of off-targets 0.0, Selectivity number of targets 233.0, Source Knowledge https://www.sciencedirect.com/science/article/pii/S2451945619300674?via%3Dihub, at 1 µM
Chain of Dual specificity protein kinase CLK3 (P49761 whole entry, looked up): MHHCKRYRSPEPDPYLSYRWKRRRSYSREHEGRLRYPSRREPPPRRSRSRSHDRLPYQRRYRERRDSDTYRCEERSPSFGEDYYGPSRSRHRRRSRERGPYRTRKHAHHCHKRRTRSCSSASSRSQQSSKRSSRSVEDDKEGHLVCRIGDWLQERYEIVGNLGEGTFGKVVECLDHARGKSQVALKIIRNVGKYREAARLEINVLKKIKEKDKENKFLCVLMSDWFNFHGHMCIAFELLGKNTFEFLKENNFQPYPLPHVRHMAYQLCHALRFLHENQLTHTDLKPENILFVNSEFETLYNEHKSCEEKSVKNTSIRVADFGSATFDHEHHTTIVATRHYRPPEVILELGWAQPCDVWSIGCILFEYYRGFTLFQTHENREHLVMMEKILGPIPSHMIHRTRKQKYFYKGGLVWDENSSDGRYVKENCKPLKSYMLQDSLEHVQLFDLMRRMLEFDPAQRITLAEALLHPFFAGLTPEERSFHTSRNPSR

[6] = molecular target: T3, MAP kinase-activated protein kinase 5 (Homo sapiens) (UniProt Q8IW41); assay: Selectivity interaction (Millipore kinase profiler) EUB0000124b MAPKAPK5; conditions: at 10 µM
T3 sequence (whole entry): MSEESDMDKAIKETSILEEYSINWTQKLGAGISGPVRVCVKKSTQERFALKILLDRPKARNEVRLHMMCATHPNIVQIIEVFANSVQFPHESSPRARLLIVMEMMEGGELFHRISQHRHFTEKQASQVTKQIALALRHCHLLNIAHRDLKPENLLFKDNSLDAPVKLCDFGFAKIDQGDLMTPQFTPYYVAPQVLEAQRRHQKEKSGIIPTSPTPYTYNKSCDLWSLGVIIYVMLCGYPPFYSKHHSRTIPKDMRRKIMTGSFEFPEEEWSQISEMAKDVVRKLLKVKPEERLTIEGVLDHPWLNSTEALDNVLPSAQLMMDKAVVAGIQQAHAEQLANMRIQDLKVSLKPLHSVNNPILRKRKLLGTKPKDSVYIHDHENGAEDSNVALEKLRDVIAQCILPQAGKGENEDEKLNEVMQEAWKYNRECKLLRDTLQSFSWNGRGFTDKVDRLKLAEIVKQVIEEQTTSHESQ

[7] = molecular target: Phosphatidylinositol 4,5-bisphosphate 3-kinase catalytic subunit gamma isoform (Homo sapiens) (UniProt P48736); assay: Selectivity interaction (Panel of kinases, GPCRs, ion channels and transporters (enzymatic assay)) EUB0000223bCl PIK3CG
Chain of Phosphatidylinositol 4,5-bisphosphate 3-kinase catalytic subunit gamma isoform (Homo sapiens) (P48736 whole entry, looked up, canonical isoform): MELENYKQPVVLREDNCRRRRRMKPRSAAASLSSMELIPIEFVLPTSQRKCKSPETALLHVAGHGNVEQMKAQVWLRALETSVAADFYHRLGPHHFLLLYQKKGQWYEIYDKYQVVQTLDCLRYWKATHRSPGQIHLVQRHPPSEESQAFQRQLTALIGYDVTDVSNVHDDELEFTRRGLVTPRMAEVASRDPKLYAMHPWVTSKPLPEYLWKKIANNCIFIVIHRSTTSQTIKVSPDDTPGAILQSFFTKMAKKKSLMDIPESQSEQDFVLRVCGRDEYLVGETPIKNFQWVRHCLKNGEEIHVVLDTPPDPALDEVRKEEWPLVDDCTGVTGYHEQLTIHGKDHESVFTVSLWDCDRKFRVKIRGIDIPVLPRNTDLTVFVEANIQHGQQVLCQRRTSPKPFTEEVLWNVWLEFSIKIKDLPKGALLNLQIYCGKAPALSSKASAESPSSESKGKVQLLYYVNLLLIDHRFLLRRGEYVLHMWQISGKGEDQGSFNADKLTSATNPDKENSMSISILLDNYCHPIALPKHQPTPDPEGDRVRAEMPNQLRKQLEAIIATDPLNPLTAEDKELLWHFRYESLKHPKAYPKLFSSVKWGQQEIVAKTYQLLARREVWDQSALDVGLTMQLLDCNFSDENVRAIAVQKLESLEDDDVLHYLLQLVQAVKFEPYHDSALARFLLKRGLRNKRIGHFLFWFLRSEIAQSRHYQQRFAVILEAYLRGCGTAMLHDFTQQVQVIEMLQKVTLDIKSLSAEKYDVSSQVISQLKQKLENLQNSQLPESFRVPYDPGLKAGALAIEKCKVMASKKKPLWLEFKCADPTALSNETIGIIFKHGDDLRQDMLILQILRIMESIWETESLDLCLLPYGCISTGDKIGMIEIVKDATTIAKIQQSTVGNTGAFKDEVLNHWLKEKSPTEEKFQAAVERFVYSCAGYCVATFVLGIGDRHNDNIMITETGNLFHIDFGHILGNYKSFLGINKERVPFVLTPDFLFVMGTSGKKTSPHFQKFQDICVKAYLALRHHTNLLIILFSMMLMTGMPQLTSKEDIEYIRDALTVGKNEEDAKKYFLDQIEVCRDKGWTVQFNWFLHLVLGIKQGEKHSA

[8] = molecular target: Platelet-derived growth factor receptor beta (Homo sapiens, UniProt P09619); assay: Selectivity interaction (KinomeScan (DiscoverX)) EUB0000595a PDGFRB; conditions: at 10 µM
Chain of Platelet-derived growth factor receptor beta (P09619 whole entry): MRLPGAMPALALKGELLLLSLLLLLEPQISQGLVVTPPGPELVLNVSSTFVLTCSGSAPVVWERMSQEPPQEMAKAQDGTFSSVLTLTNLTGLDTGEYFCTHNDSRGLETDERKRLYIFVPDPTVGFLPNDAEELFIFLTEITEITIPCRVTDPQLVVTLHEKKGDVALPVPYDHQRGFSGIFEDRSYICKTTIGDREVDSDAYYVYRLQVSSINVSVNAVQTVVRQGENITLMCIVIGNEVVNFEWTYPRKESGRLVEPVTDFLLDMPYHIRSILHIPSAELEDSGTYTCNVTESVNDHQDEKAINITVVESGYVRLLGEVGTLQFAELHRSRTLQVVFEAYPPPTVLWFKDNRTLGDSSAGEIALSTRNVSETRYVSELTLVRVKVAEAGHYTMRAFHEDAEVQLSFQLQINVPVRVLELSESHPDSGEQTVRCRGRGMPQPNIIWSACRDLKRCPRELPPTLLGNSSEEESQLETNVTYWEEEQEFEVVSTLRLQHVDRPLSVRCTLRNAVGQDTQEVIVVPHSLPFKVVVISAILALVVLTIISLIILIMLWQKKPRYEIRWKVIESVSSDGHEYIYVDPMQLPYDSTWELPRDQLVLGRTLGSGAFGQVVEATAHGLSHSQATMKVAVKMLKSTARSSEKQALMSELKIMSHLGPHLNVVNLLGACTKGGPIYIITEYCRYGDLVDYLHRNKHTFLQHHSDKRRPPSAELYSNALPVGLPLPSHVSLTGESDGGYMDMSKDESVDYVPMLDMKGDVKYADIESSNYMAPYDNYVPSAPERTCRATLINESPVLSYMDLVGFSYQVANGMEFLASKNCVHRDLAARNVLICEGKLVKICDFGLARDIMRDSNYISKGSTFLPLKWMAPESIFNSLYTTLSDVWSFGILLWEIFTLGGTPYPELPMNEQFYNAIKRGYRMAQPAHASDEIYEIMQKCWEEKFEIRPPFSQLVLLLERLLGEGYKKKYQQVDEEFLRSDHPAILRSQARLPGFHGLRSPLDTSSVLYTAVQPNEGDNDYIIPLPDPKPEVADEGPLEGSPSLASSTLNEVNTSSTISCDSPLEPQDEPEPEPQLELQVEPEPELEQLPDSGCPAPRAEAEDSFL

[9] = molecular target: Dual specificity protein kinase CLK2 (Homo sapiens, UniProt P49760); assay: Selectivity interaction (KinomeScan (DiscoverX)) EUB0000595a CLK2; conditions: at 10 µM
Chain of Dual specificity protein kinase CLK2 (P49760 whole entry, looked up): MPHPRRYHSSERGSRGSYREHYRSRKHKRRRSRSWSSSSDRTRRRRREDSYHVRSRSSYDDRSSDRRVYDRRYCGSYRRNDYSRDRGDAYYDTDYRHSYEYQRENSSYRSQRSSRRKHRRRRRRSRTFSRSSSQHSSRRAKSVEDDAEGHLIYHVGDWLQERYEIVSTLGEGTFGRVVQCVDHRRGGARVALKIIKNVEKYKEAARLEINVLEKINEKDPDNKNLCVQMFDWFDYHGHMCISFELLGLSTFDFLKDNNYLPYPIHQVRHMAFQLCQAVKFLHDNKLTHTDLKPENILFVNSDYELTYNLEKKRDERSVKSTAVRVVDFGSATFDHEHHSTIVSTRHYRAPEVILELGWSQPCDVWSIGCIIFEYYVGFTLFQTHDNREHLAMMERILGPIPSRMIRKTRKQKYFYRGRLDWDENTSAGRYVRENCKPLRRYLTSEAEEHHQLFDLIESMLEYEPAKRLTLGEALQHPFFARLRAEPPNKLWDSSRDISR

[10] = molecular target: Mitogen-activated protein kinase 6 (Homo sapiens) (UniProt Q16659); assay: Selectivity interaction (KinomeScan (DiscoverX)) EUB0000618a MAPK6; conditions: at 10 µM

Work on `CCC(=O)N1CCN(c2ccc(-n3c(=O)ccc4cnc5ccc(-c6cnc7ccccc7c6)cc5c43)cc2C(F)(F)F)CC1` yielded a % of control [1] of 100%.

With `C=CC(=O)Nc1cccc(C(=O)Nc2ccc(Nc3cc(-c4[nH]c(SC)nc4C)ccn3)cc2)c1` the % of control ([2]; at 1 µM) was 85% and the % of control ([2]; at 5 µM) was 56%.

`CN(C)CCCOc1ccc(-c2cc(NCCCn3cccn3)nc(S(C)(=O)=O)n2)cc1` was tested, and the dTM [3] was under 2 K and the dTM [4] was under 2 K.

`C=CC(=O)Nc1ccc(C(=O)Nc2[nH]nc3c2CN(C(=O)N[C@H](CN(C)C)c2ccccc2)C3(C)C)cc1` was tested, and the % of engagement [5] was 4.3%.

In the case of `CC(=O)Nc1cccc(-n2c(=O)n(C3CC3)c(=O)c3c(Nc4ccc(I)cc4F)n(C)c(=O)c(C)c32)c1`, the % of control [6] is reported as 91%.

`COc1cc(C(=O)N2CC[C@@H](O)[C@@H](N)C2)cc2nc(-c3cc4ccccc4n3CC3CC3)n(C)c12` showed a pXC50 [7] of under 4.5 M.

`COCC(=O)NC/C=C/c1ccc2ncnc(Nc3ccc(Oc4ccc(C)nc4)c(C)c3)c2c1` [CP-724714] was tested, and the % of control [8] was 46% and the % of control [9] was 75%.

With `O[C@H]1CC[C@H](Nc2ncc3nc(Nc4c(F)cc(F)cc4F)n([C@H]4CCOC4)c3n2)CC1` the % of control [10] was 24%.
